Reference: patent US5929099A, “Pharmaceutical composition for inhibiting the growth of cancers” (Procter & Gamble Co., priority 1996, dated 1999)
Converted amounts (≈) assume the structure as drawn. Read-outs that look alike come from different tables or passages of the source.

Assays:
HIV = test: In vitro acute model for HIV, viral replication; assay type: cell-based; conditions: Human immunodeficiency virus 1, 1 μg/ml, read-out: inhibited viral replication
Method: In an in vitro acute model for HIV carbendazim inhibited viral replication by 100% at 4 μg/ml and AZT inhibited viral replication by 98% at 1 μg/ml. Thiabendazole inhibited viral replication by 98% at 60 μg/ml.

[1] = test system: HIV-1 in chronic infected U1 cells (HIV monocytes); test: HIV chronic study, monocyte HIV replication; assay type: cell-based; conditions: Human immunodeficiency virus 1, Monocyte; 1 μg/ml; positive control; read-out: suppressed HIV monocytes replication
Method: (§1) These cells were treated with test samples.

HIV-1 = test: HIV chronic study, therapeutic index
Method: Chronic HIV-1 infected cells U1 were derived from an acute HIV-1 infection of the promonocytic cell line, U937. The chronic HIV-1 infected cells, ACH-2 were derived from an acute HIV-1 infection of the T cell line, A3.01.
These cells were cultured in medium and the phorbol ester, PMA. […] Cell viability was measured when these cell lines were treated with the test compounds.
In addition, the number of institute positive HIV mRNA expressing cells per microscopic field is measured. Comparisons can be made from these numbers since the same number of cells were adhered to the glass slides for each drug concentration (10×10^6 cells/ml).

[2] = test system: HIV-1 in chronic infected ACH-2 cells (T-cell); test: HIV chronic study, T-cell HIV replication; assay type: cell-based; conditions: Human immunodeficiency virus 1, ACH-2; positive control AZT (1 μg/ml); read-out: suppressed T-cell HIV replication
Method: as §1

[3] = test system: colon, breast and lung human tumor cells; test: Colon, breast and lung tumor cells test, overall comparison; assay type: cell-based; conditions: positive control, in all cases
Method: (§2) The following cell culture tests were performed to test the toxicity of the benzimidazole compounds on colon, breast and lung human tumor cells. The viability of the cells were tested by looking at MTT (3-[4,5-dimethylthiazol-2-yl]-2,5-diphenyltetrazolium bromide) reduction. MTT assay is a well known measure of cell viability.
(§3) The colon tumor cells (HT29 from American Type Culture Collection (ATCC)) and the breast cells (MX1 from cell lines from ATCC) were cultured in Eagle's Miminal Essential Medium with 10% fetal bovine serum. The lung tumor cells (A549 from ATCC cell lines) were cultured in Ham's F12 medium with 10% fetal bovine serum.
The tumor cells were passaged and seeded into culture flasks at the desired cell densities. The culture medium was decanted and the cell sheets were washed twice with phosphate buffered saline (PBS). The cells were trypsinized and triturated prior to seeding the flasks. […]
The cells were subcultured when the flasks were subconfluent. […] The concentration of cells in the suspension was determined, and an appropriate dilution was made to obtain a density of 5000 cells/ml. […]
(§4) The absorbance at 550 mn (OD550) of each well was measured with a Molecular Devices (Menlo Park, Calif.) VMax plate reader.
The mean OD550 of the solvent control wells and that of each test article dilution, and that of each of the blank wells and the positive control were calculated. […]

A549 lung tumor cells = test: MTT cell viability, lung tumor cells (Table 1); assay type: cell-based; conditions: Homo sapiens, A549, 120 h, approx. 5 days, read-out: EC-50 Result
Method: as §2, §3
(§5) The tumor cells were passaged and seeded into culture flasks at the desired cell densities. The culture medium was decanted and the cell sheets were washed twice with phosphate buffered saline (PBS). The cells were trypsinized and triturated prior to seeding the flasks. Unless otherwise indicated the cultures were incubated at 37±1° C. in a humidified atmosphere of 5±1% carbon dioxide in air. The cultures were incubated until they were 50-80% confluent.
(§6) The cells were subcultured when the flasks were subconfluent. The medium was aspirated from the flasks and the cell sheets rinsed twice with PBS. Next, the Trypsin Solution was added to each flask to cover the cell sheet. The Trypsin Solution was removed after 30-60 seconds and the flasks were incubated at room temperature for two to six minutes. When 90% of the cells became dislodged, growth medium was added. The cells were removed by trituration and transferred to a sterile centrifuge tube. The concentration of cells in the suspension was determined, and an appropriate dilution was made to obtain a density of 5000 cells/ml. The cells were subcultured into the designated wells of the 96-well bioassay plates (200 microliter cell suspension per well). PBS was added to all the remaining wells to maintain humidity. The plates were then incubated overnight before test article treatment.
(§7) Each dose of test article was tested by treating quadruplicate wells of cultures with 100 microliter of each dilution. Those wells designated as solvent controls received an additional 100 microliter of methanol control; negative controls wells received an additional 100 microliters of treatment medium. PBS was added to the remaining wells not treated with test article or medium. The plates were then incubated for approximately 5 days.
(§8) At the end of the 5 day incubation, each dose group was examined microscopically to assess toxicity. A 0.5 mg/ml dilution of MTT was made in treatment medium, and the dilution was filtered through a 0.45 micrometer filter to remove undissolved crystals. The medium was decanted from the wells of the bioassy plates. Immediately thereafter, […] of the filtered MTT solution was added to all test wells except for the two untreated blank test wells. The two blank wells received 200 microliters of treatment medium. The plates were returned to the incubator for about 3 hours. After incubation, the MTT containing medium was decanted. […] was added to each well and the plates were shaken at room temperature for about 2 hours.
as §4
(§9) The mean OD550 of the solvent control wells and that of each test article dilution, and that of each of the blank wells and the positive control were calculated. The mean OD550 of the blank wells was subtracted from the mean of the solvent control wells, and test article wells, respectively to give the corresponding mean OD550. [formula]
(§10) Dose response curves were prepared as semi-log plots with % of control on the ordinate (linear) and the test article concentration on the abscissa (logarithmic). The EC50 was interpolated from the plots for each test article.
(§11) For the test articles administered in methanol, separate responses were prepared to correct for the methanol data. […]

MX1 breast tumor cells = test: MTT cell viability, breast tumor cells (Table 1); assay type: cell-based; conditions: Homo sapiens, 120 h, approx. 5 days, read-out: EC-50 Result
Method: as §2, §3, §5, §6, §7, §8, §4, §9, §10, §11

HT29 colon tumor cells = test: MTT cell viability, colon tumor cells (Table 1); assay type: cell-based; conditions: Homo sapiens, HT-29, 120 h, approx. 5 days, read-out: EC-50 Result
Method: as §2, §3, §5, §6, §7, §8, §4, §9, §10, §11

[4] = Toxicity to normal healthy cells (Table 2); assay type: cell-based; conditions: read-out: EC-50 (the source's name)
From the text: The EC50 is the concentration at which one half of the cells are killed.
In normal healthy cells, the following results were obtained.

melanoma = test: In vivo mouse model for melanoma, combination with Navelbine, survival time

Cc1cn([C@H]2C[C@H](N=[N+]=[N-])[C@@H](CO)O2)c(=O)[nH]c1=O [AZT]
inhibition at 1 µg/mL (HIV): 98%
inhibition at 1 µg/mL [1]: 98%
therapeutic index (TI), the ratio of the toxic dose of drug to efficacious dose of drug (HIV-1): 12, 500
inhibition at 1 µg/mL [2]: 60%

COc1cccc2c1C(=O)c1c(O)c3c(c(O)c1C2=O)C[C@@](O)(C(=O)CO)C[C@@H]3O[C@H]1C[C@H](N)[C@H](O)[C@H](C)O1 [Adriamycin]
toxicity relative to the test materials [3]: more toxic than any of the test materials by one or two logs
IC50 (A549 lung tumor cells; A549, first column): 0.03 µg/mL (≈ 0.0552 µM)
IC50 (A549 lung tumor cells; A549, second column): 0.009 µg/mL (≈ 0.0166 µM)
IC50 (MX1 breast tumor cells; MX1, first column): 0.02 µg/mL (≈ 0.0368 µM)
IC50 (MX1 breast tumor cells; MX1, second column): 0.001 µg/mL (≈ 0.00184 µM)
IC50 (HT29 colon tumor cells; HT29, first column): 0.03 µg/mL (≈ 0.0552 µM)
IC50 (HT29 colon tumor cells; HT29, second column): 0.006 µg/mL (≈ 0.011 µM)
CC50 ([4]; bronchial cells, Broncheal Cells, first value): 0.015 µg/mL (≈ 0.0276 µM)
CC50 ([4]; bronchial cells, Broncheal Cells, second value): 0.002 µg/mL (≈ 0.00368 µM)
CC50 ([4]; fibroblasts, first value): 0.065 µg/mL (≈ 0.12 µM)
CC50 ([4]; fibroblasts, second value): 0.1 µg/mL (≈ 0.184 µM)
CC50 ([4]; kerotinoyle cells, first value): 0.0035 µg/mL (≈ 0.00644 µM)
CC50 ([4]; kerotinoyle cells, second value): 0.0093 µg/mL (≈ 0.0171 µM)

CCC1=C[C@@H]2CN(C1)Cc1c([nH]c3ccccc13)[C@@](C(=O)OC)(c1cc3c(cc1OC)N(C)[C@H]1[C@@](O)(C(=O)OC)[C@H](OC(C)=O)[C@]4(CC)C=CCN5CC[C@]31[C@@H]54)C2 [Navelbine]
% increase in survival time vs. untreated mice (melanoma; Navelbine alone 0.5 mg/kg): 190%
% increase in survival time vs. untreated mice (melanoma; Navelbine alone 1.0 mg/kg): 245%
% increase in survival time vs. untreated mice (melanoma; Navelbine alone 2.0 mg/kg): 265%
